Test results: patent US20060069120A1, “Novel piperidine derivaties as modulators of chemokine receptor ccr5” (priority 2002, published 2006)

Molecular target: recombinant human CCR5 receptor (Homo sapiens, UniProt P51681)
Experiment: MIP-1α radioligand binding assay (scintillation proximity)
Details: displacement of 0.1 nM iodinated MIP-1α; membranes of Chinese hamster ovary cells expressing recombinant human CCR5; average if tested more than once
Method: The ability of compounds to inhibit the binding of MIP-1α was assessed by an in vitro radioligand binding assay. Membranes were prepared from Chinese hamster ovary cells which expressed the recombinant human CCR5 receptor. These membranes were incubated with 0.1 nM iodinated MIP-1α, scintillation proximity beads and various concentrations of the compounds of the invention in 96-well plates. The amount of iodinated MIP-1α bound to the receptor was determined by scintillation counting. Competition curves were obtained for compounds and the concentration of compound which displaced 50% of bound iodinated MIP-1α was calculated (IC50).
In Table IV the results are presented as Pic50 values. A Pic50 value is the negative log (to base 10) of the IC50 result, so an IC50 of 1 μM (that is 1×10^−6M) gives a Pic50 of 6. If a compound was tested more than once then the data below is an average of the probative tests results.

recombinant human CCR5 receptor, sequence (P51681 whole entry): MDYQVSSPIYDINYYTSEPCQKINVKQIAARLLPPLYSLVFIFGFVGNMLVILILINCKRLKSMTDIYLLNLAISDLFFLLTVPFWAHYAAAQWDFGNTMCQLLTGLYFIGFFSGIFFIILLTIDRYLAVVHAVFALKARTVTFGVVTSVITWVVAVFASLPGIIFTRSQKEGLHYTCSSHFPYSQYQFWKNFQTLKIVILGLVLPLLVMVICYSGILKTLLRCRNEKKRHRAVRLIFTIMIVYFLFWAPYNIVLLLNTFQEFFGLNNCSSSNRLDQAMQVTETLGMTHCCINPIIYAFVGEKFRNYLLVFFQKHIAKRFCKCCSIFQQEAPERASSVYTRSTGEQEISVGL

SMILES	IC50 [nM]
CS(=O)(=O)c1ccc(NC(=O)CC2CCN(CCC(c3ccccc3)N3CCN(c4ccccc4)CC3)CC2)cc1 (centres unmarked) [Table I Compound 3]	12
CS(=O)(=O)c1ccc(NC(=O)CC2CCN(CCC(c3ccccc3)C3CCN(C(=O)c4ccc(Cl)cc4)CC3)CC2)cc1 (centres unmarked) [Table I Compound 5]	1.32

Further compounds by falling IC50, results first:

IC50 [nM]	SMILES
89.1	CS(=O)(=O)c1ccc(CNC(=O)CCC2CCN(CCC(c3ccccc3)C3CCN(S(C)(=O)=O)CC3)CC2)cc1 (single isomer, unassigned) [Table V Compound 3]
5.62	CS(=O)(=O)N1CCC(C(CCN2CCC(CC(=O)Nc3ccc(F)cc3)CC2)c2ccccc2)CC1 (centres unmarked) [Table I Compound 6]
0.871	CS(=O)(=O)c1ccc(NC(=O)CC2CCN(CC[C@@H](c3ccccc3)c3ccc(S(C)(=O)=O)cc3)CC2)cc1 [Table IV Compound 1, (S) N-(4-methanesulphonylphenyl)-1-[3-phenyl-3-(4-methanesulphonylphenyl)-propyl]piperidin-4-yl acetamide]
